Test results published in patent US7326418B2, “Identification of novel factors that block programmed cell death or apoptosis by targeting JNK” (University of Chicago, priority 2001, dated 2008).
Entries after “also recorded” stand apart in the source; their conditions may differ. Structures can show the parent of a compound that is named as a salt. Peptide text beside a SMILES is read from it. * marks the point of attachment. Cbz = O=C(OCc1ccccc1)*; CH2F = FC*

Legend:
[1] = system: BT-20; details: for induction of apoptosis by NF-κB blockers: PGA1 100 μM 20 hours, CAPE 50 μg/ml 17 hours, parthenolide 2.5 μg/ml 4 hours
[2] = system: MDA-MD-231; details: for induction of apoptosis by NF-κB blockers: PGA1 100 μM 20 hours, CAPE 50 μg/ml 17 hours, parthenolide 2.5 μg/ml 4 hours
[3] = system: JNK activation in 3DO cells; assay: JNK activation by TNFα in 3DO cells (Western blots, JNK kinase assays); format: cell-based
Description: Plasmids were transfected as indicated along with pEGFP (Clontech). […] Inhibitors (Calbiochem) and concentrations are as indicated.
Northern blots were performed by standard procedures using 6 μg of total RNA. The EMSAs with the palindromic probes and the preparation of whole cell extracts were as previously described (Franzoso et al., 1992). For western blots, cell extracts were prepared either in a modified lysis buffer (50 mM Tris, pH 7.4, 100 mM NaCl, 50 mM NaF, 1 mM NaBo4, 30 mM pyrophosphate, 0.5% NP-40, and protease inhibitors (FIG. 1B; Boehringer Mannheim), in Triton X-100 buffer (FIG. 4A; Medema et al., 1997) or in a lysis buffer containing 1% NP-40 350 mM NaCl, 20 MM HEPES (pH 8.0), 20% glycerol, 1 mM MgCl2, 0.1 mM EGTA, 0.5 mM DTT, 1 mM Na3VO4, 50 mM NaF and protease inhibitors. Each time, equal amounts of proteins (ranging between 15 and 50 μg) were loaded and Western blots prepared according to standard procedures. Reactions were visualized by ECL (Amersham). Antibodies were as follows: IκBα, Bid, and β-actin from Santa Cruz Biotechnology; caspase-6, -7 and -9, phospho and total -p38, phosph and total -ERK, phospho and total -JNK from Cell Signaling Technology; caspase-8 from Alexis; Caspase-2 and -3 from R&D systems. The Gadd45β-specific antibody was generated against an N-Terminal peptide. Kinase assays were performed with recombinant GST-c-jun and anti-JNK antibodies (Pharmingen), (Lin et al., 1995).

[4] = in vivo, cited from earlier work
[5] = system: 3DO-IκBαM cells; assay: Survival of 3DO-IκBαM cells pretreated with MAPK inhibitors, then TNFα; details: TNFα 25 U/ml 12 hours
Description: FIG. 5a: Kinetics of JNK activation by TNKα (1000 U/ml) in 3DO—IκBαM and 3DO-Neo clones. Western blots with antibodies specific for phosphorylated (P) or total JNK (top and middle, respectively) and JNK kinase assays (bottom). […] CHX treatments were carried out for 30 minutes in addition to the indicated time. FIG. 5d: Survival of transfected RelA−/− MEFs following treatment with TNFα (1000 U/ml) plus CHX ([…]) for 10 hours. Plasmids were transfected as indicated along with pEGFP (Clontech). FIG. 5e: Survival of 3DO-IκBαM cells pretreated with MAPK inhibitors for 30 minutes and then incubated with either TNFα (25 U/ml) or PBS for an additional 12 hours. Inhibitors (Calbiochem) and concentrations are as indicated. In (d) and (e), values represent the mean of three independent experiments.
MEF and 3DO cells were cultured in 10% Fetal bovine serum-supplemented DMEM and RPMI, respectively. Transient transfections in RelA−/− MEF were performed by Superfect according to the manufacturer's instructions (Qiagen). After cytotoxic treatment with CHX (Sigma) plus or minus TNFα (Peprotech), adherent cells were counted and analyzed by FCM (FACSort, Becton Dickinson) to assess numbers of live GFP^+ cells. To generate 3DO stable lines, transfections were carried out by electroporatoration (BTX) and clones were grown in appropriate selection media containing Geneticin (Gibco) and/or Hygromycin (Invitrogen). […] Daunorubicin, PMA, Ionomycin, hydrogen peroxide, and sorbitol were from Sigma; Cisplatin (platinol AQ) was from VHAplus, PD98059 and SB202190 were from Calbiochem.

[6] = biological target: T1, JNKK2/MKK7 (Homo sapiens, UniProt O14733, Q133P/Q94H); assay: Kinase assay of immunoprecipitated FLAG-JNKK2/MKK7 (GST-JNK1 substrate) pre-incubated with recombinant Gadd45β proteins or peptides; format: biochemical; details: active MKK7 from TNFα-activated 293 cells, GST-JNK1 substrate
T1 construct: expressed in transfected cells; host or cells: HEK-293, TNFα-treated or untreated; anti-FLAG immunoprecipitate
T1 sequence (O14733 1-401 Q94H/Q133P limits assumed): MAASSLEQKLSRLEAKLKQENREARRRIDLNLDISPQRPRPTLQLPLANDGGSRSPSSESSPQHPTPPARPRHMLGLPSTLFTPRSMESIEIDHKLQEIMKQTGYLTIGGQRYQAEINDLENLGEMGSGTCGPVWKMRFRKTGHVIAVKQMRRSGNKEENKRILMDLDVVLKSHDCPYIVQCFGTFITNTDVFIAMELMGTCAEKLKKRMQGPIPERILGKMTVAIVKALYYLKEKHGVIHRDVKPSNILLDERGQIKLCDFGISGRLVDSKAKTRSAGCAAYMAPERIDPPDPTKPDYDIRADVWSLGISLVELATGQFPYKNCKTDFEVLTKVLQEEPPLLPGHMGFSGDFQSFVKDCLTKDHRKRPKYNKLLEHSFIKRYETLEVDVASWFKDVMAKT
Description: Next, the functional consequences, in vitro, of the physical interactions of Gadd45β with kinases in the JNK pathway were assessed. Murine and human, full-length Gadd45J3 proteins were purified from E. coli as GST-Gadd45β and His6-tagged Gadd45β (His6 disclosed as SEQ ID NO: 46), respectively, according to standard procedures. Prior to employing these proteins in in vitro assays, purity of all recombinant polypeptides was assured by >98%, by performing Coomassie blue staining of SDS polyacrylamide gels. Then, the ability of these proteins, as well as of control GST and His6-EF3 (His6 disclosed as SEQ ID NO: 46)proteins, to inhibit kinases in the JNK pathways was monitored in vitro. FLAG-tagged JNKK2, JNKK1, MKK3, and ASK1 were immunoprecipitated from transiently transfected 293 cells using anti-FLAG antibodies and pre-incubated for 10 minutes with increasing concentrations of recombinant proteins, prior to the addition of specific kinase substrates (i.e. GST-JNK1 with JNKK1 and JNKK2; GST-p38[…] with MKK3; GST-JNNK1 or GST-JNKK2 with ASK1). […] These findings indicate that, upon binding to Gadd45β, JNKK2 is effectively inactivated.
A question was whether Gadd45β inhibited active MKK7, in vitro. FLAG-MKK7 was immunoprecipitated from TNFα-treated or untreated 293 cells, and kinase assays were performed in the presence of purified His6-Gadd45β (His6 disclosed as SEQ ID NO: 46), GST-Gadd45β, or control proteins (FIG. 28d; see also FIG. 28g). […] Consistent with the in vivo findings (FIG. 27), the inhibitory activity of Gadd45β was specific. […] Indeed, the effects of Gadd45β on MKK7 phosphorylation by TNFα may be due inhibition of the MKK7 ability to auto-phoshorylate and/or to serve as substrate for upstream kinases. Altogether, the findings identify MKK7 as a target of Gadd45β, and of NF-[…]B, in the JNK cascade. Of interest, MKK7 is a selective activator of JNK, and its ablation abolishes JNK activation by TNFα. Thus, blockade of MKK7 is sufficient on its own to explain the effects of Gadd45β on JNK signaling—i.e. its specific and near-complete suppression of this signaling.
Active MKK7 was immunoprecipitated from TNFα-activated 293 cells and MKK7 kinase assays were performed using GST-JNK1 substrates and pure recombinant Gadd45β polypeptides (FIG. 37B; a schematic diagram representing the Gadd45βpolypeptides used is shown in FIG. 37A). […] MKK7 kinase assays were performed as in FIG. 37B, except that pure synthetic Gadd45, peptides (whose sequences are shown in FIG. 37C) were used instead of pure recombinant Gadd45β proteins. The amino acid region between amino acids 58 and 77 of Gadd45βis used for the Gadd45β-mediated inhibition of MKK7. […]

[7] = concomitant treatment with PGA1, CAPE or parthenolide

## O=C(/C=C/c1ccc(O)c(O)c1)OCCc1ccccc1 [CAPE]
[1]
  induction of apoptosis by NF-κB blockers: induced apoptosis rapidly
[2]
  induction of apoptosis by NF-κB blockers: induced apoptosis rapidly

## C[C@@H]1C[C@@H]([C@H](O)CC2CC(=O)NC(=O)C2)C(=O)[C@@H](C)C1 [CHX, cycloheximide]
[3]; 3DO cells, CHX alone
  JNK activation by agent alone: no effect
[3]; parental 3DO cells, TNFα 1000 U/ml plus CHX 10 μg/ml
  down-regulation of TNFα-induced JNK: impaired

## N.N.[Cl][Pt][Cl] [Cisplatin]
[4]
  oral absorption: not absorbed orally

## COc1cccc(-c2cc(=O)c3ccccc3o2)c1N [PD98059]
[5]; 30 min pretreatment
  antagonism of TNFα cytotoxicity: could not antagonize

## Oc1ccc(-c2nc(-c3ccncc3)c(-c3ccc(F)cc3)[nH]2)cc1 [SB202190]
[5]; high concentrations, 50 μM
  cell survival under TNFα: dramatically enhanced cell survival; also recorded: rescues
[5]; low concentrations, 5 μM and lower
  antagonism of TNFα cytotoxicity: could not antagonize

## Oc1c2ccccc2c2c3c(cccc13)N=N2 [SP600125]
[1]; [7]
  rescue from cytotoxicity induced by inhibition of NF-κB: can be rescued; also recorded: dramatically rescued
[2]; [7]
  rescue from cytotoxicity induced by inhibition of NF-κB: can be rescued; also recorded: dramatically rescued

## COc1cccc2c1C(=O)c1c(O)c3c(c(O)c1C2=O)C[C@@](O)(C(C)=O)C[C@@H]3O[C@H]1C[C@H](N)[C@H](O)[C@H](C)O1 [daunorubicin, 5,12-Naphthacenedione, (8S-cis)-8-acetyl-10-[(3-amino-2,3,6-trideoxy-a-L-lyxo-hexanopyranosyl)oxy]-7,8,9,10-tetrahydro-6,8,11-trihydroxy-10-methoxy-, hydrochloride]
[4]
  oral absorption: poor
  half-life of elimination: about 19 hr
  secreted into the bile: ~40%

## COc1cccc2c1C(=O)c1c(O)c3c(c(O)c1C2=O)C[C@@](O)([C@H](C)O)C[C@@H]3O[C@H]1C[C@H](N)[C@H](O)[C@H](C)O1 [daunorubicinol]
[4]
  half-life of active metabolite: about 27 hr

## CCCCC[C@H](O)/C=C/[C@H]1C=CC(=O)[C@@H]1CCCCCCC(=O)O [prostaglandin A1]
[1]
  induction of apoptosis by NF-κB blockers: induced apoptosis rapidly
[2]
  induction of apoptosis by NF-κB blockers: induced apoptosis rapidly

## COC(=O)C[C@H](NC(=O)[C@H](C)NC(=O)[C@@H](NC(=O)OCc1ccccc1)C(C)C)C(=O)CF [zVAD-fik] (Cbz-Val-Ala-Asp(OMe)-CH2F)
[3]; IκBαM-Hygro 3DO clones
  late (160 minutes, caspase-dependent) rise of JNK activation by TNFα: could be prevented

## AIDEEEEDDIALQIHFTLIQSFCCDND [amino acids 60-86, positions 60-86 of Gadd45β]
[6]
  inhibition of MKK7 activity by Gadd45β-derived peptides / polypeptide regions: sufficient to also inhibit MKK7 activity
